US10463709B2, “Short synthetic peptide for treating diseases and/or conditions related to angiogenesis” (MacKay Memorial Hospital, priority 2015, dated 2019)
Several values for one entry are separate records, joined by “and”; a condition that tells them apart may be missing. Equal values may be shown once. Square brackets hold non-standard residues; d marks the D form. Ends that are not written are not given here.

Columns and labels:
[1] = system: RPMI8226 cells; test: MTT assay, VEGF-induced proliferation of RPMI8226 cells; assay type: cell-based; conditions: for biological activity of the analogue relative to the 7-mer (summary statement of the description): summary of Example 1 findings; for effect on VEGF-induced proliferation of RPMI8226 cells: VEGF 50 ng/ml, 25 μM peptide, 24 hrs, MTT
Method: The multiple myeloma line RPMI8226 was cultivated in complex medium (RPMI1640) supplemented with 10% (vol/vol) heat-inactivated fetal calf serum (Invitrogen), 50 μg/mL penicillin, 50 μg/mL streptomycin, and 2 mM L-glutamine at 37° C. in a 5% CO2 atmosphere. RPMI8226 cells were cultured in serum-free RPMI1640 medium for 24 hrs, and then cells were seeded in 48-well culture plates (3×10^5 cells/well) and continued to culture in 0.5 ml fresh serum-free RPMI1640 medium containing 25 μM peptide for another 24 hrs. The cell viability was determined by the MTT assay. Briefly, 50 μL of MTT stock solution (50 μL) (5 mg MTT dissolved in 1 ml of sterile PBS) was added to each culture well. In addition, 50 μL of the MTT stock solution was added in 500 μL of medium as the negative control. The culture plate was incubated at 37° C. for 4 hours. Aliquots (450 μl) from each sample were taken to a new well of 48-well culture plate, adding 100 μL DMSO, mixing thoroughly using the pipette and reacted at 37° C. for 20 min and read absorbance at 570 nm. These synthesized peptides were then subject to MTT assay, in which vascular endothelial growth factor (VEGF) was used as a stimulant to induce cell proliferation. Results are depicted in FIGS. 1 to 4.

[2] = system: HUVECs; test: VEGF-induced HUVEC proliferation assay; assay type: cell-based; conditions: vs untreated HUVECs
Method: HUVECs (1×10^5 cells per well of 6-well plate) were grown in Medium 200 with Low Serum Growth Supplement (LSGS Kit, supplement contains 1.9% FBS, 3 ng/ml bFGF, 10 μg/ml heparin, 1 μg/ml hydrocortisone, and 10 ng/ml EGF). Culture plates were coated with 2% gelatin. Cells (passages 4-8) were cultured at 37° C. in a humidified atmosphere of 5% CO2. […]
HUVECs (1×10^5 cells per well of 6-well plate) in Medium 200 supplemented with LSGS Kit were allowed to grow onto 6-well plates coated with 2% gelatin for 24 hours at 37° C. in 5% CO2. The culture medium was then replaced with serum free Medium 200 overnight. […] Then, cells were harvested by trypsin-EDTA and counted using a hemocytometer.

[3] = system: HUVECs; test: Endothelial cell capillary-like tube formation assay; assay type: cell-based; conditions: vs untreated HUVECs
Method: To examine the effect of the present synthetic peptide on in vitro angiogenesis, growth factor-reduced matrigel was pipetted into pre-chilled 24-well plates (150 μl matrigel per well) and polymerized for 45 min at 37° C. […] In this experiment, images were captured using a Cannon camera on Zeiss inverted microscope with magnification ×40 and tube length was quantified using Image analysis software (Image-Pro Plus). The control peptide as used in the present invention has the sequence of DLYRVR (SEQ ID NO: 10).

[4] = system: rat aortic ring; test: Rat aortic ring assay (ex vivo microvessel sprouting); design: species or system Sprague Dawley rats; conditions: beta-FGF induced; peptide 50 μM
Method: Thoracic aortas were removed from euthanized 10-week-old male Sprague Dawley rats, and gently stripped off periaortic fibroadipose tissue. Aortas were sectioned to about 2-mm length rings, which were embedded in Matrigel. To induce angiogenesis, human recombinant bFGF (50 ng/ml) or bFGF plus the peptide (50 μM) was added in Matrigel. Gel (200 μl) containing an aortic ring was polymerized in 12-well plates (37° C. for 30 min) and then incubated with 1 ml of Medium 200 supplemented with 100 units/ml penicillin, and […] streptomycin and 2% FBS at 37 ° C. The cultures were propagated at 37 ° C. in a humidified incubator for up to 7 days. Sprouts were recorded using an inverted microscope platform (Leica DM16000B) with bright-field optics. Each ring was scored by three independent observers on a scale 0-4 depending on the degree of sprouting vessel being observed (0=no sprouting, 4=profuse sprouting). The experiment was repeated in triplicates.

[5] = system: B16-F10 melanoma cells; test: Experimental pulmonary metastasis in mice; assay type: in vivo, C57BL/6 mice; conditions: for effect on number of colonies on the surface of the lung / in vivo metastasis / No. lung colonies: 10 mg/Kg intraperitoneal every 2 days; for No. lung colonies: day 8, n = 5; for Inhibition (%): lung colonies vs vehicle, 10 mg/Kg
Method: 2×10^5 B16-F10 cells were suspended in 100 μl PBS and checked for viability using trypan blue staining (>95%). The B16-F10 cells were then injected into the tail vein of the 6-week-old female C57BL/6 mice; while vehicle (DMSO), the present synthetic peptide or the control peptide (10 mg/kg) were administered by intraperitoneal injections every 2 days after the B16-F10 cell injection. Five mice were used for each group. On day 8 after inoculation of cells, the lungs were removed, and the number of visible colonies on the surface of the lungs were counted using a dissecting microscope.
Metastasis is the foremost cause of death from cancer. In this example, to investigate the efficacy of the present synthetic peptide on the metastasis of cancer cells, B16-F10 cells were injected into the tail vein of a mouse, the animal was then treated with the present synthetic peptide (7-mer or 7-mer DD, 10 mg/Kg) by intraperitoneal injections every 2 days. Upon completion of the experiment, the lungs were then removed and the tumor colonies visible to the eyes were then counted. Results are depicted in FIG. 10.

[6] = system: STZ-induced diabetic mice; test: Vascular abnormalities in the retina of diabetic mice; assay type: in vivo; conditions: for Fluorescence Intensity (Fold): leaked FITC-BSA in entire retina, vs vehicle
Method: Diabetic mice were generated by a single intraperitoneal injection of streptozotocin (STZ) (150 mg/kg body weight). STZ was freshly prepared in 0.1 M citrate buffer (pH 4.5). After injection, mice were supplied with 10% sucrose overnight to prevent sudden hypoglycemic shock. After 1 week, mice with non-fasting blood glucose levels >500 mg/dl were defined as diabetic and used for the experiments. DMSO Vehicle or the present synthetic peptide (10 mg/kg; n≥3 per peptide) were administered by intraperitoneal injections twice a day. After treatment for 24 h, mice were intraperitoneal injected with 100 mg/kg of BSA-FITC for further 30 min.
To determine vascular lesions (hemorrhaging areas) in retina, the animals were euthanized by CO2 inhalation, and the eyes were enucleated and fixed by 2% paraformaldehyde for 2 hr and flat-mounted onto glass slides to obtain optical sections by an epifluorescence microscopy. Vascular lesions in the retina was scored in all four retinal quadrants of flat mounts by using a 20× objective. Six microscopic fields were sampled in each quadrant in both the central and peripheral retina, and data were presented as the average number of lesions/retina.
Vascular FITC-BSA leakage was determined by a fluorescence spectrofluorometer based on standard curves of FITC-BSA at excitation and emission wavelengths of 488 and 535 nm, respectively, and then normalized to a non-injected control retina. For this analysis, retinas were dissected from treated and untreated diabetic mice after BSA-FITC injections, and each was solubilized in 300 μL ice-cold PBS.
Diabetic retinopathy is characterized by blood-retinal barrier (BRB) breakdown and neurotoxicity. To evaluate the possible beneficial effect of the present synthetic peptides on diabetic retinopathy, STZ-induced diabetic mice were intraperitoneally injected with 7-mer peptide, DMSO vehicle or the control peptide (SEQ ID NO: 22). The retinal vascular abnormality was then monitored by detecting the extravasation of BSA-fluorescein. Results are depicted in FIG. 11.

[7] = VEGF (10 ng/mL) + 25 μM peptide

## H-DLYR[dV]RS-OH [7-mer DV]
[1]; 1 to 25 μM, RPMI8226 cells
  dose dependence of inhibitory action on VEGF-induced cell proliferation: dose dependent manner
[2]; [7]
  Cell number (Fold): 0.99 ± 0.078 Fold
[3]; [7]
  Tube length (Fold): 1.24 ± 0.18 Fold
[4]
  level of sprouting microvessels around the aortic ring: inhibited
[5]
  effect on number of colonies on the surface of the lung / in vivo metastasis: may suppress in vivo metastasis
  No. lung colonies: 51 ± 17.0
  Inhibition (%): 77.4%
[6]
  extravasation of FITC-BSA: may significantly prevent
  Fluorescence Intensity (Fold): 0.31 ± 0.072 Fold

## H-D[dL]YRVRS-OH [7-mer DL]
[1]
  biological activity of the analogue relative to the 7-mer (summary statement of the description): lose its biological activity

## NH2-Ala-Leu-Tyr-Arg-Val-Arg-Ser-COOH (ALYRVRS; not fully specified (N-terminus, C-terminus); printed as NH2-Ala-Leu-Tyr-Arg-Val-Arg-Ser-COOH) [7-mer Da]
[1]
  effect on VEGF-induced proliferation of RPMI8226 cells: sustained part of the 7-mer activity

## NH2-Asn-Val-Tyr-Arg-Val-Arg-Ser-COOH (NVYRVRS; not fully specified (N-terminus, C-terminus); printed as NH2-Asn-Val-Tyr-Arg-Val-Arg-Ser-COOH) [7-mer NV]
[1]
  effect on VEGF-induced proliferation of RPMI8226 cells: could sustain 7-mer bioactivity, only partly
[2]; [7]
  Cell number (Fold): 1.01 ± 0.086 Fold
[3]; [7]
  Tube length (Fold): 1.41 ± 0.32 Fold
[4]
  level of sprouting microvessels around the aortic ring: inhibited
[5]
  effect on number of colonies on the surface of the lung / in vivo metastasis: may suppress in vivo metastasis
  No. lung colonies: 55 ± 16.5
  Inhibition (%): 75.8%
[6]
  extravasation of FITC-BSA: may significantly prevent
  Fluorescence Intensity (Fold): 0.35 ± 0.11 Fold

## NH2-Asp-(D-Leu)-Tyr-Arg-Val-(D-Arg)-Ser-COOH (H-D[dL]YRV[dR]S-OH) [7-mer DR2]
[1]
  biological activity of the analogue relative to the 7-mer (summary statement of the description): lose its biological activity

## NH2-Asp-Ala-Tyr-Arg-Val-Arg-Ser-COOH (DAYRVRS; not fully specified (N-terminus, C-terminus); printed as NH2-Asp-Ala-Tyr-Arg-Val-Arg-Ser-COOH) [7-mer La]
[1]
  effect on VEGF-induced proliferation of RPMI8226 cells: sustained part of the 7-mer activity

## NH2-Asp-Ile-Tyr-Arg-Val-Pro-Ser-COOH (DIYRVPS; not fully specified (N-terminus, C-terminus); printed as NH2-Asp-Ile-Tyr-Arg-Val-Pro-Ser-COOH) [7-mer IP]
[1]
  effect on VEGF-induced proliferation of RPMI8226 cells: could sustain 7-mer bioactivity, only partly
[2]; [7]
  Cell number (Fold): 1.05 ± 0.067 Fold
[3]; [7]
  Tube length (Fold): 1.66 ± 0.20 Fold
[4]
  level of sprouting microvessels around the aortic ring: inhibited
[5]
  effect on number of colonies on the surface of the lung / in vivo metastasis: may suppress in vivo metastasis
  No. lung colonies: 63 ± 9.4
  Inhibition (%): 72.0%
[6]
  extravasation of FITC-BSA: may significantly prevent
  Fluorescence Intensity (Fold): 0.38 ± 0.12 Fold

## NH2-Asp-Leu-(D-Tyr)-Arg-Val-Arg-Ser-COOH (H-DL[dY]RVRS-OH) [7-mer DY]
[1]
  biological activity of the analogue relative to the 7-mer (summary statement of the description): lose its biological activity
[2]; [7]
  Cell number (Fold): 1.63 ± 0.077 Fold

## NH2-Asp-Leu-Tyr-(D-Arg)-Val-Arg-Ser-COOH (H-DLY[dR]VRS-OH) [7-mer DR]
[1]
  biological activity of the analogue relative to the 7-mer (summary statement of the description): lose its biological activity

## NH2-Asp-Leu-Tyr-Arg-Val-Gln-Ser-COOH (DLYRVQS; not fully specified (N-terminus, C-terminus); printed as NH2-Asp-Leu-Tyr-Arg-Val-Gln-Ser-COOH) [7-mer (R2→Q)]
[1]
  effect on VEGF-induced proliferation of RPMI8226 cells: could sustain 7-mer bioactivity, only partly

## NH2-Asp-Val-Phe-Arg-Val-Arg-Thr-COOH (DVFRVRT; not fully specified (N-terminus, C-terminus); printed as NH2-Asp-Val-Phe-Arg-Val-Arg-Thr-COOH) [7-mer VFT]
[1]
  effect on VEGF-induced proliferation of RPMI8226 cells: could sustain 7-mer bioactivity, only partly
  biological activity of the analogue relative to the 7-mer (summary statement of the description): relatively the same bioactivity

## NH2-Leu-Leu-Tyr-Arg-Val-Arg-Ser-COOH (LLYRVRS; not fully specified (N-terminus, C-terminus); printed as NH2-Leu-Leu-Tyr-Arg-Val-Arg-Ser-COOH) [7-mer (D→L)]
[1]
  effect on VEGF-induced proliferation of RPMI8226 cells: could sustain 7-mer bioactivity, only partly
  biological activity of the analogue relative to the 7-mer (summary statement of the description): relatively the same bioactivity

## NH2-Phe-Leu-Tyr-Arg-Val-Arg-Ser-COOH (FLYRVRS; not fully specified (N-terminus, C-terminus); printed as NH2-Phe-Leu-Tyr-Arg-Val-Arg-Ser-COOH) [7-mer (D→F)]
[1]
  effect on VEGF-induced proliferation of RPMI8226 cells: could sustain 7-mer bioactivity, only partly
  biological activity of the analogue relative to the 7-mer (summary statement of the description): relatively the same bioactivity

## NH2-Val-Leu-Tyr-Arg-Val-Arg-Ser-COOH (VLYRVRS; not fully specified (N-terminus, C-terminus); printed as NH2-Val-Leu-Tyr-Arg-Val-Arg-Ser-COOH) [7-mer (D→V)]
[1]
  effect on VEGF-induced proliferation of RPMI8226 cells: could sustain 7-mer bioactivity, only partly
  biological activity of the analogue relative to the 7-mer (summary statement of the description): relatively the same bioactivity

## VEGF [reference compound]
[2]; VEGF (10 ng/mL) alone
  Cell number (Fold): 1.62 Fold and 1.62 ± 0.070 Fold
[3]; VEGF (10 ng/mL) alone
  Tube length (Fold): 3.43 ± 0.32 Fold
